Laboratory results published in the supplement of paper PMC11451515.

System: SEM cells
Assay: cell viability relative to DMSO control; higher = less cytotoxic
Details: 48 h
In short: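 NOMO1 or SEM cells were plated at 500 cells/well and P12-Ichikawa cells at 1000 cells/well in 1536-well plates (5 μl), after each leukemia line had been adapted for at least four passages in each medium. Pin dosing delivered library compounds in DMSO at 11 threefold concentrations, 47 μM to 0.79 nM. CellTiter-Glo One luminescence was read after 48 h at 37°C. Viability is reported as a per-plate percentage of DMSO wells, with cell-free wells as background.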

[1] = HPLM + 10% dialyzed FBS, 0.000781 µM
[2] = HPLM + 10% dialyzed FBS, 0.00234 µM
[3] = HPLM + 10% dialyzed FBS, 0.00702 µM
[4] = HPLM + 10% dialyzed FBS, 0.0211 µM
[5] = HPLM + 10% dialyzed FBS, 0.0632 µM
[6] = HPLM + 10% dialyzed FBS, 0.19 µM
[7] = HPLM + 10% dialyzed FBS, 0.569 µM
[8] = HPLM + 10% dialyzed FBS, 1.71 µM
[9] = HPLM + 10% dialyzed FBS, 5.12 µM
[10] = HPLM + 10% dialyzed FBS, 15.4 µM
[11] = HPLM + 10% dialyzed FBS, 46.1 µM
[12] = RPMI 5 mM glucose + 10% dialyzed FBS, 0.000781 µM
[13] = RPMI 5 mM glucose + 10% dialyzed FBS, 0.00234 µM
[14] = RPMI 5 mM glucose + 10% dialyzed FBS, 0.00702 µM
[15] = RPMI 5 mM glucose + 10% dialyzed FBS, 0.0211 µM
[16] = RPMI 5 mM glucose + 10% dialyzed FBS, 0.0632 µM
[17] = RPMI 5 mM glucose + 10% dialyzed FBS, 0.19 µM
[18] = RPMI 5 mM glucose + 10% dialyzed FBS, 0.569 µM
[19] = RPMI 5 mM glucose + 10% dialyzed FBS, 1.71 µM
[20] = RPMI 5 mM glucose + 10% dialyzed FBS, 5.12 µM
[21] = RPMI 5 mM glucose + 10% dialyzed FBS, 15.4 µM
[22] = RPMI 5 mM glucose + 10% dialyzed FBS, 46.1 µM
[23] = RPMI 5 mM glucose + 10% FBS, 0.000781 µM
[24] = RPMI 5 mM glucose + 10% FBS, 0.00234 µM
[25] = RPMI 5 mM glucose + 10% FBS, 0.00702 µM
[26] = RPMI 5 mM glucose + 10% FBS, 0.0211 µM
[27] = RPMI 5 mM glucose + 10% FBS, 0.0632 µM
[28] = RPMI 5 mM glucose + 10% FBS, 0.19 µM
[29] = RPMI 5 mM glucose + 10% FBS, 0.569 µM
[30] = RPMI 5 mM glucose + 10% FBS, 1.71 µM
[31] = RPMI 5 mM glucose + 10% FBS, 5.12 µM
[32] = RPMI 5 mM glucose + 10% FBS, 15.4 µM
[33] = RPMI 5 mM glucose + 10% FBS, 46.1 µM

Structure (SMILES)	cell viability [1] [%]	cell viability [2] [%]	cell viability [3] [%]	cell viability [4] [%]	cell viability [5] [%]	cell viability [6] [%]	cell viability [7] [%]	cell viability [8] [%]	cell viability [9] [%]	cell viability [10] [%]	cell viability [11] [%]	cell viability [12] [%]	cell viability [13] [%]	cell viability [14] [%]	cell viability [15] [%]	cell viability [16] [%]	cell viability [17] [%]	cell viability [18] [%]	cell viability [19] [%]	cell viability [20] [%]	cell viability [21] [%]	cell viability [22] [%]	cell viability [23] [%]	cell viability [24] [%]	cell viability [25] [%]	cell viability [26] [%]	cell viability [27] [%]	cell viability [28] [%]	cell viability [29] [%]	cell viability [30] [%]	cell viability [31] [%]	cell viability [32] [%]	cell viability [33] [%]
CC(C)[C@H](O)C(=O)N[C@@H](C)C(=O)N[C@@H]1C(=O)N(C)CCc2ccccc21	118	122	127	111	132	82.7	119	110	74	110	107	120	135	116	103	119	94.6	97.5	109	38.1	106	95.7	–	–	–	–	–	–	–	–	–	–	–
O=C(O)c1cccnc1	111	117	109	118	105	106	98.2	37.5	14.4	9.12	6.43	–	–	–	–	–	–	–	–	–	–	–	–	–	–	–	–	–	–	–	–	–	–
COc1cc2cc(c1Cl)N(C)C(=O)C[C@H](OC(=O)C(C)C)[C@]1(C)O[C@@H]1[C@H](C)[C@@H]1C[C@@](O)(NC(=O)O1)[C@H](OC)/C=C/C=C(\C)C2	27.9	26	28.5	22.6	15.2	9.09	7.19	6.56	5.59	4.17	2.54	24.3	24	20.2	14.5	8.42	5.55	5.76	5.03	4.42	3.49	1.84	21.3	24.2	21.4	12.7	9.24	8.39	7.82	6.35	4.76	4.03	2.1
COC(=O)[C@H](Cc1ccccc1)NC(=O)[C@@H](N)CC(=O)O	128	106	111	103	130	110	126	119	103	120	116	124	106	104	107	123	122	111	116	98.3	110	104	125	98.5	121	112	122	118	128	119	100	123	116
N#Cc1cc(NC(=O)Nc2nnc(-c3ccncc3)s2)ccc1-c1cn[nH]c1	–	–	–	–	–	–	–	–	–	–	–	107	120	128	107	98.6	129	113	122	127	93	108	96	111	93	85.1	96.4	106	107	105	87.9	93.1	89.2
CCC[C@H](Nc1nc(-c2ccc(NC(=O)NCC)c(OC)c2)ncc1C)c1cccnc1	87.7	108	94	112	27.2	28.4	26.7	19.4	12.9	13.1	10.7	102	105	87.1	134	23.6	23.7	24.9	10.9	7.58	7.31	4.35	4.71	78.8	84.3	114	16.5	21	17.2	10.4	6.57	6.69	3.95
O=c1oc2cc(O)ccc2s1	85.6	110	98.9	95.4	109	105	120	93.9	111	105	37.9	97.4	119	99.3	109	121	88.3	112	106	129	90.3	37.6	91.8	106	82.9	110	103	98.6	112	118	109	77.6	24.8
CCc1nc(N)nc(N)c1-c1ccc(Cl)cc1	89	95	68.1	108	115	106	98.9	63	41	47.6	36.6	77.4	92.2	70.5	96.5	98.4	92.4	95.3	101	48.6	85.9	46.6	77	81.2	63.4	91.9	97.1	99.3	93	87.3	36	93.9	83.6
CN(C[C@@H]1COCCO1)[S+]([O-])(=O)NC2=CC3=C(C=C2)\C=C/C4=C(C=C(C=N4)C5=C[N](C)N=C5)C3=O	85.5	93.9	92.6	86.4	79.5	80.8	69.9	48.8	29.8	22.4	24.8	78.9	96.4	91.2	86.8	85.2	66.3	60.8	38.5	24.5	17.3	18.3	113	86.6	110	109	85.5	76.3	53.1	35.2	22.2	16	16.4
